As usually defined, the inhibition is the change of the read-out against control, counted positive when it falls.

The target of the first test is T1, NO synthase (Rattus norvegicus, UniProt P29476).
T1 construct: the supernatant was then removed by decantation and frozen in portions at −80° C; from tissue; host or cells: rat cerebellum, 20,000 g supernatant of homogenate
The test can be described thus: HTS-NOS assay (NOS assay): conversion of radioactive arginine, cation-exchanger filter plate. Conditions: 10 μM. It counts as biochemical. The essentials:
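Percent inhibition was derived by comparing remaining radioactive arginine with compound-free controls. Arginine retained on phosphate cation-exchanger filters was counted after citrulline washout, following a 5-60 min room-temperature (25 °C) reaction of labelled arginine, NADPH-containing medium and rat cerebellar homogenate supernatant.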
For the molecule `C#[N+]CCCCCCN(C(C)=O)c1c(-c2ccc(C)cc2)nc2cc(C)ccn12` [Example 279, {6-[acetyl-(7-methyl-2-p-tolyl-imidazo[1,2-a]pyridin-3-yl)-amino]-hexyl}-methylidyne-ammonium], the “HTS-NOS assay: % inhibition (10 μM)” value was determined as 71%.
Consider `[C-]#[N+]CCCCCCN(C(C)=O)c1c(-c2ccccc2OC)nc2cc(C)ccn12` [Example 281, (6-{acetyl-[2-(2-methoxy-phenyl)-7-methyl-imidazo[1,2-a]pyridin-3-yl]-amino}-hexyl)-methylidyne-ammonium], for which the “HTS-NOS assay: % inhibition (10 μM)” value was 62%.
Same read-out and setting: the value for `C#[N+]CCCCCCN(C(C)=O)c1c(-c2ccccn2)nc2cc(C)cc(C)n12` [Example 289, {6-[acetyl-(5,7-dimethyl-2-pyridin-2-yl-imidazo[1,2-a]pyridin-3-yl)-amino]-hexyl}-methylidyne-ammonium] was 63%.

Staying with this test, now noted: Table 5; concentration not given.
As for `Cc1cc(C)n2c(NC3CCCC3)c(-c3ccc(Br)cc3F)nc2c1.Cl` [Example 304, [2-(4-Bromo-2-fluoro-phenyl)-5,7-dimethyl-imidazo[1,2-a]pyridin-3-yl]-cyclopentyl-amine hydrochloride], the “NOS assay % inhibition” value is on record as 56%.
As to `Cc1cc(C)n2c(NC3CCCC3)c(-c3ccc(-c4ccccc4[N+](=O)[O-])o3)nc2c1.Cl` [Example 305, Cyclopentyl-{5,7-dimethyl-2-[5-(2-nitro-phenyl)-furan-2-yl]-imidazo[1,2-a]pyridin-3-yl}-amine hydrochloride], the “NOS assay % inhibition” value stood at 55%.
Still for that read-out and setting: the value for `Cc1cc(C)n2c(NC3CCCC3)c(-c3ccc(-c4ccc(Cl)cc4)o3)nc2c1.Cl` [Example 306, {2-[5-(4-Chlorophenyl)-furan-2-yl]-5,7-dimethyl-imidazo[1,2-a]pyridin-3-yl}-cyclopentyl-amine hydrochloride] was 73%; that for `Cc1cc(C)n2c(NC3CCCC3)c(-c3ccoc3)nc2c1.Cl` [Example 307, Cyclopentyl-(2-furan-3-yl-5,7-dimethyl-imidazo(1,2-a]pyridin-3-yl)-amine hydrochloride] was 57%; that for `Cc1cc(C)n2c(NC(C)(C)CC(C)(C)C)c(-c3ccoc3)nc2c1.Cl` [Example 308, (2-Furan-3-yl-5,7-dimethyl-imidazo[1,2-a]-pyridin-3-yl)-(1,1,3,3-tetramethyl-butyl)-amine hydrochloride] was 50%.
On to `Cc1ccn2c(NCc3ccccc3)c(-c3ccsc3)nc2c1.Cl` [Example 309, Benzyl-(7-methyl-2-thiophen-3-yl-imidazo-[1,2-a]pyridin-3-yl)-amine hydrochloride], for which the “NOS assay % inhibition” value came out at 45%.
On the same count and under the same terms, the value for `Cc1ccn2c(NC(C)(C)CC(C)(C)C)c(-c3ccoc3)nc2c1.Cl` [Example 311, (2-Furan-3-yl-7-methyl-imidazo[1,2-a]pyridin-3-yl)-(1,1,3,3-tetramethyl-butyl)-amine hydrochloride] was 45%.
Take `Cc1cc(C)n2c(NC(C)(C)CC(C)(C)C)c(-c3ccsc3)nc2c1.Cl` [Example 312, (5,7-Dimethyl-2-thiophen-3-yl-imidazo[1,2-a]-pyridin-3-yl)-(1,1,3,3-tetramethyl-butyl)-amine hydrochloride]: the “NOS assay % inhibition” value was found to be 74%.

The same test, now with this note: Table 5; concentration not given; hydrochloride.
Regarding `Cc1cc(C)n2c(NC3CCCCC3)c(-c3ccoc3)nc2c1.Cl` [Example 302, Cyclohexyl-(2-furan-3-yl-5,7-dimethyl-imidazo-[1,2-a]pyridin-3-yl)-amine hydrochloride], the “NOS assay % inhibition” value came to 54%.
Same read-out and setting: the same measure for `Cc1cc(C)n2c(NC3CCCCC3)c(-c3ccoc3)nc2c1.Cl` [Example 310, Cyclohexyl-(2-furan-3-yl-5,7-dimethyl-imidazo-[1,2-a]pyridin-3-yl)-amine hydrochloride]: 52%.

The test is the same for the next values; noted with them: read-out: HTS-NOS assay: % inhibition (10 μM).
For `CC(=O)N(c1c(-c2ccc(Br)o2)nc2c(C)cccn12)C(C)(C)CC(C)(C)C` [Example 271, N-[2-(5-bromo-furan-2-yl)-8-methyl-imidazo[1,2-a]pyridin-3-yl]-N-(1,1,3,3-tetramethyl-butyl)-acetamide], the inhibition at 10 µM is 51%.
The same measure, in the same setting: the value for `CC(=O)N(c1c(C)cccc1C)c1c(-c2cccc(O)c2)nc2nc(C)cc(C)n12` [Example 272, N-(2,6-dimethyl-phenyl)-N-[2-(3-hydroxy-phenyl)-5,7-dimethyl-imidazo[1,2-a]-pyrimidin-3-yl]-acetamide] was 54%; that for `CC(=O)N(c1c(-c2cccc(Cl)c2Cl)nc2ccccn12)C1CCCCC1` [Example 273, N-cyclohexyl-N-[2-(2,3-dichloro-phenyl)-imidazo[1,2-a]pyridin-3-yl]-acetamide] was 55%; that for `CC(=O)N(c1c(-c2ccc(Cl)cc2Cl)nc2cccc(C)n12)C1CCCCC1` [Example 274, N-cyclohexyl-N-[2-(2,4-dichloro-phenyl)-5-methyl-imidazo[1,2-a]pyridin-3-yl]-acetamide] was 64%.
On to `CC(=O)N(c1c(-c2ccc(Cl)cc2Cl)nc2ncccn12)C1CCCCC1` [Example 275, N-cyclohexyl-N-[2-(2,4-dichloro-phenyl)-imidazo[1,2-a]pyrimidin-3-yl]-acetamide], for which the inhibition at 10 µM came out at 59%.
Still for that read-out and setting: the same measure for `COC(=O)CN(C(C)=O)c1c(-c2ccccc2C)nc2cnccn12` [Example 276, [acetyl-(2-o-tolyl-imidazo[1,2-a]pyrazin-3-yl)-amino]-acetic acid methyl ester]: 50%.
Still for that read-out and setting: the value for `CC(=O)N(c1c(-c2cccs2)nc2c(Cl)cc(Cl)cn12)C(C)(C)C` [Example 277, N-tert-butyl-N-(6,8-dichloro-2-thiophen-2-yl-imidazo[1,2-a]pyridin-3-yl)-acetamide] was 53%; that for `CCCc1cccc2nc(-c3cccs3)c(N(C(C)=O)C(C)(C)C)n12` [Example 278, N-tert-butyl-N-(5-propyl-2-thiophen-2-yl-imidazo[1,2-a]pyridin-3-yl)-acetamide] was 55%.
As for `CCCCN(C(C)=O)c1c(-c2ccc(C)cc2)nc2ccc(C)cn12` [Example 280, N-butyl-N-(6-methyl-2-p-tolyl-imidazo[1,2-a]pyridin-3-yl)-acetamide], the inhibition at 10 µM stood at 53%.
On the same count and under the same terms, the same measure for `CC(=O)N(c1c(-c2ccc(C(=O)O)o2)nc2ccc(C)cn12)C(C)(C)CC(C)(C)C` [Example 282, 5-{3-[acetyl-(1,1,3,3-tetramethyl-butyl)-amino]-6-methyl-imidazo[1,2-a]pyridin-2-yl}-furan-2-carboxylic acid]: 51%; for `CCCCN(C(C)=O)c1c(-c2cc(OC)c(OC)c(OC)c2)nc2cnccn12` [Example 283, N-butyl-N-[2-(3,4,5-trimethoxy-phenyl)-imidazo[1,2-a]pyrazin-3-yl]-acetamide]: 51%.
The same measure, in the same setting: the value for `CCCCN(C(C)=O)c1c(-c2cccc(O)c2)nc2ncccn12` [Example 284, N-butyl-N-[2-(3-hydroxy-phenyl)-imidazo[1,2-a]pyrimidin-3-yl]-acetamide] was 51%; that for `COC(=O)CN(C(C)=O)c1c(-c2ccccc2C)nc2ncccn12` [Example 285, [acetyl-(2-o-tolyl-imidazo[1,2-a]pyrimidin-3-yl)-amino]-acetic acid methyl ester] was 51%.
Turning to `CC(=O)N(c1c(-c2cc3ccccc3o2)nc2c(C)cccn12)C(C)(C)CC(C)(C)C` [Example 286, N-(2-benzofuran-2-yl-8-methyl-imidazo[1,2-a]pyridin-3-yl)-N-(1,1,3,3-tetramethyl-butyl)-acetamide], the inhibition at 10 µM was 59%.
Consider `CCCCN(C(C)=O)c1c(-c2ccc(C)cc2)nc2nc(C)ccn12` [Example 287, N-butyl-N-(7-methyl-2-p-tolyl-imidazo[1,2-a]pyrimidin-3-yl)-acetamide], for which the inhibition at 10 µM was determined as 58%.
Regarding `CC(=O)N(c1c(C)nc2c(Br)cc(Br)cn12)C(C)(C)C` [Example 288, N-tert-butyl-N-(6,8-dibromo-2-methyl-imidazo[1,2-a]pyridin-3-yl)-acetamide], the inhibition at 10 µM came to 62%.
As for `CCOc1ccc2ccccc2c1-c1nc2cc(C)ccn2c1N(C(C)=O)C(C)(C)C` [Example 290, N-tert-butyl-N-[2-(2-ethoxy-naphthalen-1-yl)-7-methyl-imidazo[1,2-a]pyridin-3-yl]-acetamide], the inhibition at 10 µM came out at 67%.
On to `CC(=O)N(c1c(-c2ccc(F)cc2Cl)nc2ccccn12)C(C)(C)C` [Example 291, N-tert-butyl-N-[2-(2-chloro-4-fluoro-phenyl)-imidazo[1,2-a]pyridin-3-yl]-acetamide], for which the inhibition at 10 µM stood at 53%.
On to `CCc1ccn2c(NCc3ccccc3OC)c(-c3ccc([N+](=O)[O-])o3)nc2c1` [Example 313, [7-Ethyl-2-(5-nitro-furan-2-yl)-imidazo[1,2-a]pyridin-3-yl]-(2-methoxy-benzyl)-amine], for which the inhibition at 10 µM was 32%.
Still for that read-out and setting: the value for `CCc1ccn2c(NCc3ccccc3Cl)c(-c3ccc([N+](=O)[O-])o3)nc2c1` [Example 314, (2-Chlorobenzyl)-[7-ethyl-2-(5-nitro-furan-2-yl)-imidazo[1,2-a]pyridin-3-yl]-amine] was 47%.
As for `CCc1ccn2c(NCc3ccccc3OC)c(-c3ccc(C)o3)nc2c1` [Example 315, [7-Ethyl-2-(5-methyl-furan-2-yl)-imidazo[1,2-a]pyridin-3-yl]-(2-methoxy-benzyl)-amine], the inhibition at 10 µM was 32%.
Regarding `CCc1ccn2c(NCc3ccccc3Cl)c(-c3ccco3)nc2c1` [Example 316, (2-Chloro-benzyl)-(7-ethyl-2-furan-2-yl-imidazo[1,2-a]pyridin-3-yl)-amine], the inhibition at 10 µM stood at 52%.
Same read-out and setting: the value for `CCc1ccn2c(Nc3ccc(F)c(Cl)c3)c(-c3ccc(C)o3)nc2c1` [Example 317, (3-Chloro-4-fluoro-phenyl)-[7-ethyl-2-(5-methyl-furan-2-yl)-imidazo[1,2-a]pyridin-3-yl]-amine] was 59%.

The record behind these values is patent publication US20040023972A1, “Use of substituted imidazo[1,2-a]-pyridin-, -pyrimidin-and-pyrazin-3-yl-amine derivatives in the preparation of medicaments for inhibiting NOS” (Gruenenthal GmbH, priority 2000, published 2004).
